The test concerns the target T1, human GPR40 (Homo sapiens, UniProt O14842).
T1 construct: expressed in transfected cells; host or cells: HEK cells stably expressing the aequorin reporter
The experiment in a line: Inositol Phosphate Turnover (IP1) Assay 3. In kind it is cell-based. Conditions: HEK cells stably expressing human GPR40. The procedure, abridged:
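HEK cells stably expressing human GPR40, plated 16 h before, were treated with compound for 60 min at 37 °C in stimulation buffer. IP1 measured by HTRF (665/620 nm ratio) against an IP1 standard curve; activity normalized to a reference compound, EC50 from 4-parameter fit.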

Drawing on US10968193B2, “Antidiabetic bicyclic compounds” (Merck Sharp & Dohme Corp., priority 2014, dated 2021), this text covers EC50 for 20 compounds.

Usually EC50 stands for the midpoint of the concentration-response curve. The low end stands for higher potency in that assay, the high end for lower potency in that assay.

T1 sequence (O14842 whole entry): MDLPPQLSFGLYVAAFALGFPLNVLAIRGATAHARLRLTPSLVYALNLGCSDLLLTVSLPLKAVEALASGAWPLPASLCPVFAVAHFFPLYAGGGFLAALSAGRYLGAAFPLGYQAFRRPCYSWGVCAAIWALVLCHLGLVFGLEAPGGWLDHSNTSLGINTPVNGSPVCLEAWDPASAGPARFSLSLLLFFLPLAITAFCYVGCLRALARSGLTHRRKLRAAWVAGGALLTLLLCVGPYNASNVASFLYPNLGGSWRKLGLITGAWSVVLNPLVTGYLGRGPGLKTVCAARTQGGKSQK

The compound `COc1cc(-c2ccc(C3CCc4ccc([C@H](C5CC5)[C@H](C)C(=O)O)cc4O3)cc2C(C)N2CCCC2)ccn1` (some centres unmarked) [Example 249] came in with a concentration for a half-maximal effect (EC50) of 14.2 nM. In the case of `COc1cc(-c2ccc(C3CCc4ccc([C@H](C5CCC5)[C@H](C)C(=O)O)cc4O3)cc2CN2CCCCC23CC3)c(F)cn1` (single isomer, unassigned) [Example 107] it was 0.1 nM; in that of `CCN(Cc1cc(-c2cc(OC)ncc2F)ccc1C1CCc2ccc([C@H](C3CC3)[C@H](C)C(=O)O)cc2O1)C(C)C` (single isomer, unassigned) [Example 124a], 0.09 nM; in that of `COc1cc(-c2ccc([C@H]3CCc4ccc([C@H](C5CC5)[C@H](C)C(=O)O)cc4O3)cc2CN(C(C)C)C(C)C)c(F)cn1` [Example 170], 0.07 nM. For `CCN(Cc1cc(-c2cc(OC)ncc2F)ccc1C1CCc2ccc([C@H](C3CC3)[C@H](C)C(=O)O)cc2O1)C(C)C` (mixture of isomers) [Example 124], a half-maximal response (EC50) required 0.3 nM. Compared with the last compound, the EC50 is about 4.3-fold higher. `COc1cc(-c2ccc(C3CCc4ccc([C@H](C5CC5)[C@H](C)C(=O)O)cc4O3)cc2CN(C(C)C)C(C)C)c(C#N)cn1` (some centres unmarked) [Example 292]: a half-maximal effect (EC50) was put at 0.1 nM. In the case of `CCN(Cc1cc(C2CCc3ccc([C@H](C4CC4)[C@H](C)C(=O)O)cc3O2)ccc1-c1ccnc(OC)c1)C(C)C` (some centres unmarked) [Example 287] it was 3.3 nM. The compound `CCN(C)C(C)c1cc(C2CCc3ccc([C@H](C4CC4)[C@@H](C)C(=O)O)cc3O2)ccc1-c1cc(OC)ncc1F` (some centres unmarked) [Example 246] came in with a 50% effective concentration (EC50) of 2.2 nM.

The compound `COc1cc(-c2ccc(C3CCc4ccc([C@H](C5CC5)[C@H](C)C(=O)O)c(F)c4O3)cc2CN2CCC[C@H]2C)c(F)cn1` (single isomer, unassigned) [Example 211] yielded a half-maximal effective concentration (EC50) of 2.1 nM. Consider `COc1cc(-c2ccc(C3CCc4ccc([C@H](C5CC5)[C@H](C)C(=O)O)cc4O3)cc2CN2CCC3CC32)c(F)cn1` (some centres unmarked) [Example 252], for which the concentration giving a half-maximal response (EC50) was found to be 0.7 nM.

Compound `COc1cc(-c2ccc(C3CCc4ccc([C@H](C5CC5)[C@H](C)C(=O)O)cc4O3)cc2CN2CCCCC23CC3)ccn1` (some centres unmarked) [Example 276] yielded an EC50 of 0.2 nM.

`COc1cc(-c2ccc(C3CCc4ccc([C@H](C5CCC5)[C@H](C)C(=O)O)cc4O3)cc2CN2CCCC2C)c(F)cn1` (single isomer, unassigned) [Example 100] returned a 50% effective concentration (EC50) of 0.14 nM.

`CCN(CC)Cc1cc(C2CCc3ccc([C@H](C4CC4)[C@H](C)C(=O)O)cc3O2)c(F)cc1-c1ccnc(OC)c1` (single isomer, unassigned) [Example 181] had a half-maximal effective concentration (EC50) of 14 nM. In the case of `COc1cc(-c2ccc(C3CCc4ccc([C@H](C5CCC5)[C@H](C)C(=O)O)cc4O3)cc2CN2CCCC2C)c(F)cn1` (single isomer, unassigned) [Example 101] it was 0.25 nM; in that of `COc1cc(-c2ccc(C3CCc4ccc([C@H](C5CC5)[C@H](C)C(=O)O)cc4O3)c(CN3CCCC[C@H]3C)c2)c(F)cn1` (single isomer, unassigned) [Example 130a], 8.7 nM. In the case of `CCN(C)Cc1cc(C2CCc3ccc([C@H](C4CC4)[C@H](C)C(=O)O)cc3O2)ccc1-c1cc(OC)ncc1C#N` (single isomer, unassigned) [Example 196] it was 7.2 nM. With `CCN(CC)Cc1cc(C2CCc3ccc([C@H](C4CC4)[C@H](C)C(=O)O)cc3O2)ccc1-c1ccnc(OC)c1` (single isomer, unassigned) [Example 221], the EC50 was determined as 14 nM. To `COc1cc(-c2ccc(C3CCc4ccc([C@H](C5CC5)[C@H](C)C(=O)O)cc4O3)c(CN3CCCC3)c2)ccn1` (single isomer, unassigned) [Example 112b] belongs 273 nM; to `COc1cc(-c2ccc(C3CCc4ccc([C@H](C5CC5)[C@H](C)C(=O)O)cc4O3)c(CN3[C@H](C)CC[C@H]3C)c2)ccn1` (some centres unmarked) [Example 116], 104 nM. To `COc1cc(-c2ccc(C3CCc4ccc([C@H](C5CC5)[C@H](C)C(=O)O)cc4O3)cc2CN2CCC(C(N)=O)CC2)c(F)cn1` (some centres unmarked) [Example 272] belongs 278 nM.
